Results published in US20050101575A1, “Vitamin d3 derivatives and remedies using the same” (priority 2003, published 2005).

Tested on: HL-60 cell
Experiment: Vitamin D3 antagonist effect: suppression of HL-60 cell differentiation induced by 1α,25-dihydroxyvitamin D3 (NBT reduction activity)
Format: cell-based
Details: Homo sapiens, HL-60, 96 h, simultaneous treatment with 1α,25-dihydroxyvitamin D3 (1×10^−8 M); compound 1×10^−9 to 1×10^−6 M; 4 days at 37° C.; read-out: IC50 (nM), suppression of NBT reduction activity induction in HL-60 cell
Excerpt: (1) HL-60 cell line which had been purchased from a cell bank (Japanese Cancer Research Resource Bank, Cell No: JCRB0085) was used. The cell line was stored as a frozen storage stock to prevent the change of cell characteristics attributable to successive cultivations. Prior to the initiation of experiments, the cells were defrosted and successive culturing was stared. For the experiments, cells whose successive culturing was from one month to about a half year were used. The successive culturing was carried out by centrifugally collecting cells which were in the state of suspension culture, and diluting the collected cell concentrate with a fresh culture medium at a ratio of about 1/100 (1-2×10^4 cells/ml). As the culture medium, an RPMI-1640 medium containing 10% fetal bovine serum was used.
The cells which were under successive culturing in the above process (1) were centrifugally collected, and they were dispersed in a culture medium at the cell concentration of 2×10^4 cells/ml. The dispersion was seeded into a 24-well culture schale at 1 ml/well. […] As the control, ethanol was added at 1 μl/well. After culturing at 37° C. for 4 days in the presence of 5% CO2, the cells were centrifugally collected.
(3) As the parameter of differentiation inducing effect on HL-60 cells, the induction of nitroblue tetrazonium (henceforth, NBT) reduction activity was used. The NBT reduction activity was determined according to the following procedure. That is, centrifugally collected cells were suspended in a fresh culture medium, and subsequently NBT and 12-O-tetradecanoylphorbol-13-acetate were added in such a manner that their concentrations became 0.1% and 100 ng/ml, respectively. After the mixed suspension was incubated at 37° C. for 25 min, a cytospin specimen was prepared. After air drying, it was stained with Kernechtrot, and the ratio of the positive cells of NBT reduction activity was determined under an optical microscope. Percentage ratios of the positive cell ratio in a simultaneous treatment with 1 α,25-dihydroxyvitamin D3 (1×10^−8 M) and a compound of the present invention at various treating concentrations (1×10^−9 to 1×10^−6 M) to that in a single treatment with 1 α,25-dihydroxyvitamin D3 (1×10^−8 M) were plotted against treating concentrations of the compound of the present invention, and the treating concentration of the compound of the present invention at which the percentage ratio became 50% was determined as IC50 value (nM).

IC50	Compound
50 to 150 nM	C=C1CC([C@@H](C)[C@H]2CC[C@H]3/C(=C/C=C4/C[C@@H](O)C[C@H](O)C4=C)CCC[C@]23C)OC1=O (stereo partly drawn) [Compound No. 11a, 20(R)-(tetrahydro-3-vinylidene-2-furanon-5-yl)-9,10-secopregna-5(Z), 7(E), 10(19)-triene-1(S),3(R)-diol]
< 50 nM	C=C1C[C@H](C[C@@H](C)[C@H]2CC[C@H]3/C(=C/C=C4/C[C@H](O)[C@H](C)[C@H](O)C4=C)CCC[C@]23C)OC1=O [Compound No. 22b, 2(S)-methyl-20(R)-(tetrahydro-3-vinylidene-2-furanon-5-(S)-yl)methyl-9,10-s ecopregna-5(Z),7(E), 10(19)-triene-1(S),3(S)-diol]
< 50 nM	C=C1CC(/C=C/[C@@H](C)[C@H]2CC[C@H]3/C(=C/C=C4/C[C@@H](O)C[C@H](O)C4=C)CCC[C@]23C)OC1=O (some centres unmarked) [Compound No. 31b]
< 50 nM	C=C1CC(/C=C/[C@@H](C)[C@H]2CC[C@H]3/C(=C/C=C4/C[C@@H](O)[C@H](C)[C@H](O)C4=C)CCC[C@]23C)OC1=O (stereo partly drawn) [Compound No. 32a, 2(S)-methyl-20(R)-(2-(tetrahydro-3-vinylidene-2-furanon-5-yl)-1(E)-ethenyl)-9,10-secopregna-5(Z), 7(E), 10(19)-triene-1(S), 3(R)-diol]
< 50 nM	C=C1C[C@H](C[C@@H](C)[C@H]2CC[C@H]3/C(=C/C=C4/C[C@@H](O)[C@H](C)[C@H](O)C4=C)CCC[C@]23C)OC1=O [Compound No. 22d, 2(S)-methyl-20(R)-(tetrahydro-3-vinylidene-2-furanon-5-(S)-yl)methyl-9,10-s ecopregna-5(Z),7(E),10(19)-triene-1(S),3(R)-diol]
